Measurements published in PubChem BioAssay (NCI).
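All cell lines were grown in 96-well plates and treated with compound for 48 hours. TGI is the concentration that stops growth completely.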

Legend:
Test in all cases: growth of human tumour cells (NCI), 48 h
M14 melanoma = test system: M14 melanoma
CAKI-1 renal = test system: CAKI-1 renal
MOLT-4 leukemia = test system: MOLT-4 leukemia
LOX IMVI melanoma = test system: LOX IMVI melanoma
NCI-H460 lung = test system: NCI-H460 lung
SK-MEL-2 melanoma = test system: SK-MEL-2 melanoma
RXF 393 renal = test system: RXF 393 renal
SF-268 CNS = test system: SF-268 CNS
A549 NSCLC = test system: A549 NSCLC
OVCAR-8 ovarian = test system: OVCAR-8 ovarian
MDA-N = test system: MDA-N
SK-MEL-5 melanoma = test system: SK-MEL-5 melanoma
OVCAR-4 ovarian = test system: OVCAR-4 ovarian
HCC-2998 colon = test system: HCC-2998 colon
CCRF-CEM leukemia = test system: CCRF-CEM leukemia
K-562 leukemia = test system: K-562 leukemia
NCI-H226 lung = test system: NCI-H226 lung
NCI-H522 lung = test system: NCI-H522 lung
EKVX NSCLC = test system: EKVX NSCLC
MALME-3M melanoma = test system: MALME-3M melanoma
HL-60(TB) leukemia = test system: HL-60(TB) leukemia
786-0 renal = test system: 786-0 renal
HOP-92 NSCLC = test system: HOP-92 NSCLC
SW-620 colon = test system: SW-620 colon
ACHN renal = test system: ACHN renal
HT29 colon = test system: HT29 colon
MDA-MB-231 breast = test system: MDA-MB-231 breast
A498 renal = test system: A498 renal
HCT-15 colon = test system: HCT-15 colon
IGROV1 ovarian = test system: IGROV1 ovarian
HCT-116 colon = test system: HCT-116 colon
HOP-62 NSCLC = test system: HOP-62 NSCLC
OVCAR-5 ovarian = test system: OVCAR-5 ovarian
MDA-MB-435 = test system: MDA-MB-435
SNB-75 CNS = test system: SNB-75 CNS
SF-295 CNS = test system: SF-295 CNS
MCF7 breast = test system: MCF7 breast
HS 578T breast = test system: HS 578T breast
TK-10 renal = test system: TK-10 renal
UACC-257 melanoma = test system: UACC-257 melanoma
NCI/ADR-RES ovarian = test system: NCI/ADR-RES ovarian
RPMI-8226 leukemia = test system: RPMI-8226 leukemia
KM12 colon = test system: KM12 colon
PC-3 prostate = test system: PC-3 prostate
SN12C renal = test system: SN12C renal
SNB-19 CNS = test system: SNB-19 CNS
BT-549 breast = test system: BT-549 breast
U251 CNS = test system: U251 CNS
COLO 205 colon = test system: COLO 205 colon
SK-OV-3 ovarian = test system: SK-OV-3 ovarian
UACC-62 melanoma = test system: UACC-62 melanoma
SF-539 CNS = test system: SF-539 CNS
SK-MEL-28 melanoma = test system: SK-MEL-28 melanoma
NCI-H23 lung = test system: NCI-H23 lung
OVCAR-3 ovarian = test system: OVCAR-3 ovarian
DU-145 prostate = test system: DU-145 prostate
UO-31 renal = test system: UO-31 renal
T-47D breast = test system: T-47D breast

Measured: TGI

CCN(CC)CCn1c(=O)c2c(C)c3oc4ccccc4oc3c(C)c2c1=O
not listed: SK-MEL-28 melanoma | NCI-H23 lung | OVCAR-3 ovarian | DU-145 prostate | UO-31 renal | T-47D breast
> 100 µM: all other assays above

COC(=O)c1cn(CC(O)CCl)nn1 (stereo not drawn)
not listed: NCI-H226 lung | HL-60(TB) leukemia | 786-0 renal | HCT-116 colon | SF-295 CNS | SK-OV-3 ovarian | UACC-62 melanoma
> 100 µM: all other assays above
